Entries after “also recorded” stand apart in the source; their conditions may differ.
How the values were obtained:
[1] = system: V. cholerae VC1 (WT) and MM920; test: V. cholerae biofilm modulation (CLSM, crystal violet); assay type: cell-based, Vibrio cholerae; details: 900 nM CAI-1
Protocol: The various pathogenic indicator strains used in this study were V. cholerae strain MM920 (ACqsA AluxQ), Vibrio harveyi strain MM30 (LuxS, Tn5). To initiate biofilm formation, bacteria was grown in the absence of the V. cholerae autoinducer 1 (CAI1). In addition, the bacteria were grown in presence of: 900 nM CAI1 (Vibrio Cholerae MM920), 900 nM CAI1, 200 μM Tryptophol acetate and 200 μM Tyrosol acetate, and 200 μM Tryptophol acetate and 200 μM Tyrosol acetate.
Biofilms were grown under shaking conditions at 30° C. in 96-well plate (Thermo Scientific, Rochester, N.Y., USA). […] The stained cells were washed twice with PBS. Biofilm images were taken by CLSM (Plan-Apochromat 20×/0.8 M27, Zeiss LSM880, Germany).
For static biofilm assay, overnight cultures of V. cholerae strain MM920 was diluted 1:10 in fresh LB medium containing a final concentration of 100 μM from each Tryptophol acetate and Tyrosol acetate or DMSO (up to 1%) as control. […] One in absence of the V. cholerae autoinducer (CAI-1) and the other one in presence of 900 nM CAI-1. Biofilms were grown under non-shaking conditions at 37° C. in 96-well plate (Thermo Scientific, Rochester, N.Y., USA). […] The stained cells were washed twice with PBS. Biofilm images were taken by CLSM (Plan-Apochromat 20×/0.8 M27, Zeiss LSM880, Germany).
Biofilm matrixes of V. cholerae VC1 WT (FIGS. 23Ai and 23Aii), and the V. cholerae MM920 mutant (FIGS. 23Aiii and 23Aiv) were grown for 24 hours with or without tryptophol acetate in the growth medium, and stained using the BacLight® Dead/Live Kit to distinguish viable cells.

[2] = system: Peritoneal macrophages; test: In vitro LPS stimulation of peritoneal macrophages, cytokine ELISA (24 hr); assay type: cell-based, mice; details: 100 μM, 0.1 μg/ml LPS
Protocol: Peritoneal macrophages were harvested using the protocol as described previously (Zhang et al., 2008). Elicited macrophages were harvested from WT mice which had received a 2.5 ml intraperitoneal administration of 3% Brewer thioglycolate broth (Sigma, UK) 72 hr prior collection.
Peritoneal macrophages cells (5×10^5/ml) were cultured with 0.1 μg/ml Lipopolysaccharides (LPS-Escherichia coli serotype 0127:B8, Sigma-Aldrich) and in the presence of 100 μM: tryptophol acetate, tyrosol acetate, dopamine HCl, caffeic acid, or combination of tryptophol acetate and tyrosol acetate, for 24 hr. Following culture, supernatants were collected and stored at −20° C. for the detection of the IL-6 cytokine. For IL-la detection, the inventors induced macrophages lysis by adding fresh RPMI medium and thawing three times.
IL-la and IL-6 levels were measured in peritoneal exudate fluids and LPS-stimulated culture supernatants by ELISA. To detect the cytokines, a R&D ELISA kit (Catalog #MLA00 and DY406, respectively) was used as per the manufacturer's instructions. A standard curve was constructed using serial dilutions of purified IL-la or IL-6 starting at a concentration of 15 ng/ml.

Compound | Biofilm of V. cholerae MM920, autoinducer alone [1] | Production of IL-6 [2]
CCCCCCCCCC(=O)[C@@H](O)CC [CAI-1, reference compound] | disruption of biofilm integrity | 
O=C(O)/C=C/c1ccc(O)c(O)c1 [caffeic acid] |  | comparable results; also recorded: dramatically reduced

Source: patent US20220160680A1, “MICROORGANISM MIXTURES, MOLECULES DERIVED THEREFROM, AND METHODS OF USE THEREOF” (B. G. Negev Technologies and Applications Ltd., at …, priority 2018, published 2022)
